Reference: the METLIN SMRT retention time set (Domingo-Almenara et al. 2019)

Test: gradient 5% acetonitrile 3 min, to 50% in 2 min, to 85% in 15 min, held 3 min, 100 µL/min
Details: column: Zorbax Extend-C18 2.1 x 50 mm; eluents: water / acetonitrile, 0.1% formic acid
Procedure, shortened: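 Retention time was recorded from adduct peaks, which were picked computationally and each inspected manually. Pure standards ran in mixtures of ~100 molecules on HPLC coupled to a quadrupole time-of-flight mass spectrometer, in positive and negative ionization mode, through a Zorbax Extend-C18 column (2.1 × 50 mm, 1.8 μm) at 100 μL/min. Eluents were water and acetonitrile, each with 0.1% formic acid.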

SMILES | RP-LC retention time [s]
Cc1nc2c(c(=O)n1CC(=O)NCc1cccs1)CCN(Cc1ccccc1)C2 | 608
CCN1C(=O)COc2ccc(-c3nc(NC(=O)c4cccc(OC)c4)sc3C)cc21 | 1040
CCC(=O)Oc1ccc(N2C(=O)CCC2=O)cc1 | 671
CC1CCc2nn(CC(=O)Nc3c(F)c(F)c(F)c(F)c3F)cc2C1 (centres undefined) | 934
CC(C)c1ccc(S(=O)(=O)N2CCC3(CC2)c2nccn2CCN3C)cc1 | 720
O=C(COc1ccc(F)cc1)N1CCCCC1CCN1CCCCC1 (centres undefined) | 648
CSc1ccc(-c2nc3cnccn3c2Nc2c(C)cccc2C)cc1 | 966
Cc1cc(C)cc(C(=O)N2CCCC2COc2ccc(C(=O)NC(C)C)cc2)c1 (centres undefined) | 922
Cc1nc(Nc2ccc(F)cn2)sc1C(=O)N1CCC2(CC1)OCCO2 | 686
COc1ccc(-c2csc(Nc3ccc(Br)cn3)n2)cc1 | 1170
Cc1cccc(-c2nnc(-c3nc(NCCc4c(C)noc4C)c4ccccc4n3)o2)c1 | 956
Cc1ccc(C(=O)N(CCCN)[C@@H](c2oc3cc(Cl)ccc3c(=O)c2Cc2ccccc2)C(C)C)cc1 | 863
CCn1c(=O)n(CC(=O)N2CCOCC2)c(=O)c2cnc(-c3ccc(Cl)cc3)nc21 | 934
CC1=C(C(=O)OCCc2ccccc2)C(c2cccs2)NC(=O)N1 (centres undefined) | 821
O=c1cc(Cn2nc3ccc(-c4ccc(Cl)cc4)nn3c2=O)nc2ccccn12 | 676
Nc1cc(C2CCN(C(=O)Nc3cc(F)c(F)c(F)c3)CC2)no1 | 765
Cc1nc2c(c(C)nn2C(C)(C)C)c(C)c1CCC(=O)N1CCN(c2ccccn2)CC1 | 731
Cc1cccn2cc(-c3ccc(NS(=O)(=O)c4ccc(Br)cc4)cc3)nc12 | 674
O=C(Nc1cccc(C(F)(F)F)c1)NC1CCN(c2ccccc2)C1=O (centres undefined) | 926
COc1cccc(-c2nc(-c3ccc4c(c3)ncn4CCN3CCCCC3)no2)c1OC | 680
COCCN1CCC(N2CCN(S(=O)(=O)c3ccc(F)cc3F)CC2)C1=O (centres undefined) | 570
CCc1noc2nc(C)nc(N3CCCC(C(=O)NC4CC4)C3)c12 (centres undefined) | 711

SMILES | RP-LC retention time [s]
Cc1noc(-c2cccn2Cc2cc(F)cc(F)c2)n1 | 1040
Cc1ccc(CN2CCC(CNC(=O)c3c(C)oc4nc(C)nc(N5CCOCC5)c34)CC2)cc1 | 629
Cc1nc2cc(-c3noc(COc4ccc(Cl)cc4C)n3)ccc2o1 | 1180
CCOc1ccccc1C(=O)n1nc(C)c(S(=O)(=O)N2CCC(C)CC2)c1C | 1230
COc1ccc(CCC(=O)N2CCC3(C2)C(=O)N(C)c2ccc(OC)cc23)cc1 (centres undefined) | 800
Cc1cccc(-c2nnc(-c3cc(S(=O)(=O)N4CCCCC4)ccc3Cl)o2)c1 | 1210
COCCc1nncn1C1CCN(S(=O)(=O)c2ccccc2C(F)(F)F)CC1 | 720
Cc1ccc(OCc2nn3c(-c4ccoc4C)nnc3s2)cc1C | 1090
CC(C)OCCCNC(=O)C1CCCN(c2ccc(=O)n(-c3cccc(Cl)c3)n2)C1 (centres undefined) | 789
COC(=O)c1c(NCc2cccc(OC)c2)c2cccc(Cl)c2[nH]c1=O | 803
CCN1c2cc(C(=O)NCc3cccs3)ccc2C(=O)N2CCCCC21 (centres undefined) | 822
COc1cccc(C(=O)Nc2ccc3c(c2)Sc2ncccc2C(=O)N3C)c1 | 785
COc1cccc(-c2csc(Cc3nc(-c4cccc(C)c4)no3)n2)c1 | 1250
CCc1nnc(-c2cccc(OCC(=O)N3CCCc4ccccc43)c2)o1 | 814
Brc1ccc(OCc2nnc3sc(-c4ccncc4)nn23)cc1 | 811
COc1ccc(-c2c(C)noc2NC(C)=O)cc1S(=O)(=O)Nc1ccc(F)cc1C | 770
COC(=O)CCNC(=O)C1c2ccccc2C(=O)N(c2ccccc2)C12CCCCC2 (centres undefined) | 826
CC(C)c1noc(C2(NC(=O)C3CCCC3)CCCCC2)n1 | 968
Cn1nc(-c2ccccc2F)c2cc(C(=O)N3CCN(c4ccccn4)CC3)sc21 | 654
CCOc1ccccc1NC(=O)C1(C)Oc2cccnc2N(C)C1=O (centres undefined) | 929
Cc1ccc(S(=O)(=O)Nc2ccc(-c3cn4cccc(C)c4n3)cc2)c(C)c1 | 688

The remaining lines, values ahead:

RP-LC retention time [s] | SMILES
731 | CCCCNC(=O)Cc1nnc(-c2cccc(F)c2)o1
710 | COc1ccc(CNC(=O)C2CCCN(c3cnc4nccnc4c3)C2)cc1OC (centres undefined)
787 | O=S(=O)(NCC(c1cccnc1)c1c[nH]c2ccccc12)c1ccc(Cl)c(Cl)c1 (centres undefined)
706 | Cc1noc(C)c1CNC(=O)c1cc(-c2ccccc2)n[nH]1
817 | CC1=C(c2ccccc2)S(=O)(=O)N=C1N1CCCN(C(=O)NC2CCCCC2)CC1
844 | CCCN(CC1CCOC1)C(=O)c1cc(Cl)ccc1F (centres undefined)
781 | COc1ccccc1-c1nnc(-c2ccc(OC)c(S(=O)(=O)N3CCOCC3)c2)o1
931 | CCCNC(=O)c1cn(-c2ccc(-c3nc(C(C)(C)C)no3)cn2)cn1
682 | CCSc1nnc(-c2nn(C)c3c2CN(C(=O)c2cccc(N(C)C)c2)CC3)n1C
698 | Cc1cc(C(=O)NCCOc2ccc3nnc(-c4ccccc4)n3n2)c(C)o1
664 | Cc1[nH]c(C)c(S(=O)(=O)N2CCC(C(=O)NCc3cccs3)CC2)c1C(=O)N1CCCC1
626 | O=C(CN1C(=O)C2CCCCN2c2ccc(C(=O)N3CCCC3)cc21)NCc1ccccn1 (centres undefined)
691 | COc1ccc(NC(=O)c2ccc(N3C(=O)CCC3=O)cc2)c2ccccc12
1020 | Cc1ccc(-n2ccc(=O)c(-c3nc(-c4ccccc4Br)no3)n2)cc1C
759 | CNC(=O)[C@H]1C[C@H](Oc2ccccc2)CN1C(=O)CCc1nc2ccccc2s1
608 | O=C(Nc1ccccc1)C1CCc2nc(N3CCN(C(=O)C4CCC4)CC3)sc2C1 (centres undefined)
778 | COc1cc(NC(=O)Cc2c(C(=O)O)c(C)cn2C)cc(OC)c1
877 | O=C(NCCCc1ccccc1)c1ccc2c(c1)CCN2C(=O)C1CC1
790 | CC1CCC(NC(=O)c2cn(-c3ccc(NC(=O)C4CC4)cn3)cn2)CC1 (centres undefined)
890 | COc1ccc(-c2cn3c(CC(=O)N(Cc4ccco4)C4CCCCC4)csc3n2)cc1OC
594 | NC(=O)C1CCN(C(=O)Cc2cc(-c3cccs3)on2)CC1
760 | Cc1noc(-c2ccnc(-n3cnc(C(=O)NCc4cccc(Cl)c4)c3)c2)n1
667 | CCC(C)NC(=O)C1CCN(Cc2c(C)n(CC)c3ccccc23)CC1 (centres undefined)

RP-LC retention time [s] | SMILES
586 | Cn1nc(C2CCN(C(=O)C3CCCO3)CC2)c2c1CCOC2 (centres undefined)
681 | COc1cc2ncnc(Nc3ccc(Cl)cc3F)c2cc1OC
834 | CC1(C(=O)N2CC(F)(F)C[C@H]2c2nnc(-c3ccccc3)o2)CC1
1100 | CCOC(=O)CCC(=O)Nc1cc(C)nn1-c1nc(-c2ccc(F)cc2)cs1
911 | COc1ccc(-n2cc(C(=O)Oc3cccnc3)c3ccccc3c2=O)cc1
871 | Cc1ccc(NC(=O)C2CCCN(S(=O)(=O)c3c[nH]c(C(=O)N4CCCCCC4)c3)C2)cc1C (centres undefined)
788 | CS(=O)(=O)Nc1ccc(-c2noc(CNC(=O)Cc3ccc(Cl)cc3)n2)cc1
962 | CCC(C)C(=O)NC1CCN(C2=NS(=O)(=O)C(c3ccc(C(C)C)cc3)=C2C)CC1 (centres undefined)
721 | CN1C(=O)C(c2c(-c3ccc4ccccc4c3)[nH]c3[nH]c(=O)[nH]c(=O)c23)c2ccccc21 (centres undefined)
752 | CCN(CC)C(=O)CSc1c(C)cnc2c1c(=O)n(C)c(=O)n2C
955 | COc1ccc(-c2nnc(-c3ccccc3)o2)cc1S(=O)(=O)N1CCSCC1
847 | O=C1NC(c2cccc3ccccc23)Nc2ccc(Cl)cc21 (centres undefined)
740 | O=C(O)c1cc2cc(Cl)ccc2[nH]1
1220 | O=C(COc1ccc(Cl)cc1)Nc1nc(-c2cccc3ccccc23)cs1
751 | Cc1c2cnccc2c(C)c2c1c1ccccc1n2CCOC(=O)c1ccccc1
714 | CCOc1ccc(NC(=O)c2cc(=O)c3cc(Cl)c(C)cc3o2)c2cccnc12
1120 | COc1ccc(-c2noc(-c3nnn4c3COC(c3ccc(F)cc3)C4)n2)cc1 (centres undefined)
1310 | Cc1nn(-c2nc(-c3ccc(Cl)cc3)cs2)c(C)c1CC(=O)N1CCCCC1C (centres undefined)
547 | COc1ccccc1N1C(=O)CC(N2CCC(C(N)=O)CC2)C1=O (centres undefined)
900 | Cc1cc(F)ccc1S(=O)(=O)NCCc1ccsc1
789 | COc1ccc2[nH]cc(CCNC(=O)c3ccccc3F)c2c1
844 | O=C(Nc1ccc(N2CCN(c3ccccc3)C2=O)nc1)C1CCC1
890 | O=C(CCc1nc2ccccc2n(CC(=O)Nc2cc(F)cc(F)c2)c1=O)NCc1ccccc1
